Measurements as given in ChEMBL document CHEMBL1153235, “Synthesis and antiproliferating activity of iron chelators of hydroxyamino-1,3,5-triazine family” (Bioorg Med Chem Lett, 2010).

Experiments:
[1] = Cytotoxicity against human foreskin fibroblasts after 96 hrs by MTT assay; format: cell-based; details: Fibroblast
MIA PaCa-2 (human) = assay: Cytotoxicity against human MIAPaCa2 cells after 96 hrs by MTT assay; details: MIA PaCa-2, 96 h
MDA-MB-231 (human) = assay: Cytotoxicity against human MDA-MB-231 cells after 96 hrs by MTT assay; details: MDA-MB-231, 96 h

Structure (SMILES): CON(C)c1nc(N(C)O)nc(N2CCOCC2)n1
- IC50 [1]: 250 µM
- IC50 (MIA PaCa-2 (human)): 40 µM
- IC50 (MDA-MB-231 (human)): 150 µM

Structure (SMILES): CCCCNc1nc(N(C)O)nc(N(C)O)n1
- IC50 [1]: 16.5 µM
- IC50 (MIA PaCa-2 (human)): 0.8 µM
- IC50 (MDA-MB-231 (human)): 4 µM

Structure (SMILES): CN(O)c1nc(NN)nc(N2CCOCC2)n1
- IC50 [1]: 400 µM
- IC50 (MIA PaCa-2 (human)): 150 µM
- IC50 (MDA-MB-231 (human)): 150 µM

Structure (SMILES): O=C(O)c1ccc(-n2nc(-c3ccccc3O)nc2-c2ccccc2O)cc1 [DEFERASIROX]
- IC50 [1]: 100 µM
- IC50 (MIA PaCa-2 (human)): 4 µM
- IC50 (MDA-MB-231 (human)): 10 µM

Structure (SMILES): ONc1nc(NO)nc(N2CCOCC2)n1
- IC50 [1]: 350 µM
- IC50 (MIA PaCa-2 (human)): 40 µM
- IC50 (MDA-MB-231 (human)): 250 µM

Structure (SMILES): CN(O)c1nc(N2CCOCC2)nc(N2CCC=N2)n1
- IC50 [1]: 250 µM
- IC50 (MIA PaCa-2 (human)): 50 µM
- IC50 (MDA-MB-231 (human)): 75 µM

Structure (SMILES): CCCCNc1nc(NN)nc(N(C)O)n1
- IC50 [1]: 300 µM
- IC50 (MIA PaCa-2 (human)): 50 µM
- IC50 (MDA-MB-231 (human)): 75 µM

Structure (SMILES): CN(O)c1nc(N(C)O)nc(N2CCOCC2)n1
- IC50 [1]: 200 µM
- IC50 (MIA PaCa-2 (human)): 1 µM
- IC50 (MDA-MB-231 (human)): 9 µM

Structure (SMILES): CCOC(=O)CN(C)c1nc(N(C)O)nc(N(C)O)n1
- IC50 [1]: 200 µM
- IC50 (MIA PaCa-2 (human)): 4 µM
- IC50 (MDA-MB-231 (human)): 20 µM
